Assay results reported in the OPERA property sets (Mansouri et al. 2018).
≈ marks a conversion by molar mass, not a printed value.

Conditions: for log10 biotransformation half-life (days): fish

SMILES	boiling point [°C]	melting point [°C]	other results
CCCCCC[N+](=O)[O-]	193	–	–
CCCCCCCCCCCS	257	-3	–
O=C1NC(=O)c2c(Cl)c(Cl)c(Cl)c(Cl)c21	–	–	ready biodegradability: not readily biodegradable
COc1ccccc1N1CCNCC1	–	38.5	–
CC(=O)OCCBr	162	-13.8	–
CC(Br)C(Br)C(=O)O (stereo unspecified)	–	87	–
ClC1=C(Cl)C2(Cl)C3C(Cl)OC(Cl)C3C1(Cl)C2(Cl)Cl (stereo unspecified)	–	121	log10 vapour pressure (mmHg): -5.53
O=C(O)c1ccc(Br)cc1	–	254	log10 vapour pressure (mmHg): -5
COc1cccc(O)c1	244	–	log10 Henry constant (atm·m³/mol): -7.24; log10 Koc (L/kg): 1.5; log10 vapour pressure (mmHg): -1.71; ready biodegradability: readily biodegradable
CCOC(=O)C(CC)(CC)C(C)=O	216	–	–
CC(C)(C)c1cc(-n2nc3ccccc3n2)c(O)c(C(C)(C)C)c1	–	–	ready biodegradability: not readily biodegradable; log10 biotransformation half-life (days): 0.89
CCOc1ccc([N+](=O)[O-])cc1	283	60	–
CC(C)(C1CCCCC1)C1CCCCC1	286	15.6	–
N#CCc1ccccc1Br	–	1	–
C[C@@H]1C[C@H]2[C@@H]3C[C@H](F)C4=CC(=O)C=C[C@]4(C)[C@@]3(F)[C@@H](O)C[C@]2(C)[C@H]1C(=O)CO	–	242	–
CCCCCCCCCCCCCCCC(CCCC)c1ccccc1 (stereo unspecified)	–	30.2	–
CCCCCCCCCCCC[N+](CCO)(CCO)Cc1ccccc1.[Cl-]	–	108	–
O=[N+]([O-])c1ccc2cccnc2c1	–	132	–
Cc1ccccc1S	195	15	log10 vapour pressure (mmHg): -0.193
CCSc1cccc(C)c1	219	–	–
CCOC(=O)Nc1cccc(OC(=O)Nc2ccccc2)c1	–	120	log10 Koc (L/kg): 3.18; log10 vapour pressure (mmHg): -8.52
CCN(CC)C(C)=O	186	–	log10 Koc (L/kg): 1.84
Cc1cc(C2CC2)nc(Nc2ccccc2)n1	–	75.9	log10 vapour pressure (mmHg): -5.43
CCOC(=O)C1CCCC1=O (stereo unspecified)	221	–	–
Cc1nnc(NS(=O)(=O)c2ccc(N)cc2)s1	–	208	–
O=C(O)c1ccc2c(c1)C(=O)c1ccccc1C2=O	–	291	–

SMILES	boiling point [°C]	melting point [°C]	other results
Cc1cc(C)cc(C(=O)N(NC(=O)c2ccccc2)C(C)(C)C)c1	–	206	–
CC12CC1(C)C(=O)N(c1cc(Cl)cc(Cl)c1)C2=O (stereo unspecified)	–	166	log10 Koc (L/kg): 3.18
CCCCCCCCCCCCCCCCC1CCCCC1	385	33.6	–
Clc1ccc2c(Cl)cc(Cl)c(Cl)c2c1	–	–	log10 Koa: 8.13; log10 vapour pressure (mmHg): -5.07
COP(=S)(OC)SCSc1ccc(Cl)cc1	–	–	log10 Koc (L/kg): 4.67
Cc1cc(N(C)C)nc(Cl)n1	–	87	–
C=C(Br)CC	88	-133	–
O=C(O)c1ccc([N+](=O)[O-])o1	–	186	–
Clc1cc(Cl)c2oc3c(Cl)c(Cl)cc(Cl)c3c2c1	–	204	–
O=C(OCC(O)CO)c1ccccc1Nc1ccnc2cc(Cl)ccc12 (stereo unspecified)	–	170	–
C=CC(N)=O	193	84.5	log10 Koc (L/kg): 1.7; log10 vapour pressure (mmHg): -2.15; ready biodegradability: readily biodegradable
O=c1c2ccccc2sc2ccccc12	373	209	–
CSCCC=O	166	–	–
Clc1cncc(Cl)n1	–	56.5	–
CCCCCCCCCCCC#N	277	4	log10 vapour pressure (mmHg): -2.63
CCCC(C)I (stereo unspecified)	150	-50	log10 vapour pressure (mmHg): 1.04
CC(Br)Br	108	-63	log10 vapour pressure (mmHg): 1.41
CC=CC(=O)CC	138	–	–
OCCN1CCN(CCCN2c3ccccc3Sc3ccc(Cl)cc32)CC1	–	97	–
CC(C)(C)c1cc(C(C)(C)c2ccc(O)c(C(C)(C)C)c2)ccc1O	–	114	–
O=NN(CCO)CCO	–	–	ready biodegradability: readily biodegradable
CC(C)(C)C(C)(C)C	106	101	log10 vapour pressure (mmHg): 1.32
O=c1c(O)c(-c2ccc(O)cc2)oc2cc(O)cc(O)c12	–	277	–
CC(C)=CC(C)C	83.4	-128	–
CCOP(=O)(OCC)SCS(=O)CC (stereo unspecified)	–	–	solubility: 30.7 mM (≈ 8000 µg/mL)
CC(C)(OCc1ccc(-c2ccc(Cl)cc2)cc1)C(=O)O	–	154	–

SMILES	boiling point [°C]	melting point [°C]	other results
COc1ccc(OC)c(N)c1	270	82.5	–
O=C(O)c1cccc(Cl)c1Cl	–	169	log10 vapour pressure (mmHg): -3.64
CCCCC(CCCC)CCCC	218	–	–
COc1ccc(CCCC(=O)O)cc1	–	57.5	–
CC(C)(C)C(=O)CC#N	–	71	–
O=[N+]([O-])CBr	149	–	log10 vapour pressure (mmHg): 0.491
CC1CCC2CC1C2(C)C (stereo unspecified)	160	–	–
CC(Cl)(Cl)[N+](=O)[O-]	124	–	log10 vapour pressure (mmHg): 1.23
C1OCC2(CO1)COCOC2	–	48.3	–
CCCCC(O)C(=O)O (stereo unspecified)	305	61	log10 vapour pressure (mmHg): -5.5
C1CNC1	63	–	log10 vapour pressure (mmHg): 2.25
CCCCNC(=O)NS(=O)(=O)c1ccc(C)cc1	–	128	–
C=C(Br)CC1(C(C)C)C(=O)NC(=O)NC1=O	–	181	–
Clc1cc2oc3ccc(Cl)c(Cl)c3c2c(Cl)c1Cl	–	–	log10 Koa: 10.5
CCOP(=O)(OCC)ON1C(=O)c2cccc3cccc(c23)C1=O	–	177	–
CCOP(=O)(OCC)SCc1ccccc1	–	–	log10 Koc (L/kg): 2.4
CCCCC	–	-130	log10 Henry constant (atm·m³/mol): 0.0969; log10 Koa: 1.96; log10 biodegradation half-life (days): 0.699; log10 vapour pressure (mmHg): 2.71; ready biodegradability: readily biodegradable
Cc1cc(Cl)c2ccccc2n1	270	42.5	–
CCCCCCCCCCCCCCCCCCCl	348	28.6	log10 vapour pressure (mmHg): -4.77
O=C(Nc1ccccc1)Nc1ccnc(Cl)c1	–	167	log10 vapour pressure (mmHg): -9.46
CCCC(C)(O)CC(C)C (stereo unspecified)	171	–	–
Cn1c(=O)c2[nH]cnc2n(C)c1=O	–	273	–
CCCCCCCCCCCCCCI	–	–	log10 vapour pressure (mmHg): -3.85
CN(C)N=Nc1nc[nH]c1C(N)=O	–	205	–
CCc1ccccc1CC	184	-31.2	log10 vapour pressure (mmHg): 0.0212; ready biodegradability: not readily biodegradable
Fc1cccc(N=C=S)c1	227	–	–

SMILES	boiling point [°C]	melting point [°C]	other results
Cc1ccc(N)c(Cl)c1	220	7	–
CCOP(=O)(NC(C)C)Oc1ccc(S(C)=O)c(C)c1 (stereo unspecified)	–	–	log10 Koc (L/kg): 1.57
Nc1ccccc1F	175	-34.6	–
CC1OC(C)OC(C)OC(C)O1 (stereo unspecified)	–	–	log10 Koc (L/kg): 2.38; ready biodegradability: not readily biodegradable
OCCCCCCCCCCl	–	28	–
O=C1C=CC(=O)c2ccccc21	–	128	ready biodegradability: not readily biodegradable
CCCC1C(=O)N2C(N(C)C)=Nc3ccc(C)cc3N2C1=O (stereo unspecified)	–	247	–
C[C@]12CC[C@@H]3c4ccc(O)cc4CC[C@H]3[C@@H]1CCC2=O	–	260	–
CCOC(C)(OCC)OCC	145	–	–
C1=CCNC1	90.5	–	–
Cc1ccc(C=O)cc1	204	-6	log10 vapour pressure (mmHg): -0.602; ready biodegradability: readily biodegradable
CC(=O)c1c(O)c(C)c(O)c(Cc2c(O)c3c(c(C(=O)/C=C/c4ccccc4)c2O)OC(C)(C)C=C3)c1O	–	212	–
O=P(O)(O)CCCl	–	74.2	log10 Koc (L/kg): 0; log10 vapour pressure (mmHg): -7.01
Clc1ccccc1-c1c(Cl)cccc1Cl	–	–	log10 Henry constant (atm·m³/mol): -3.64; log10 biotransformation half-life (days): 2.5
Fc1ccc(C(c2ccc(F)cc2)C(Cl)(Cl)Cl)cc1	–	44.5	–
NNC(=O)c1cccc(Br)c1	–	158	–
CCCCC(=O)c1ccccc1	245	-9.4	–
CC1CCOC(C)O1 (stereo unspecified)	116	–	–
C=CC/C=C/C	65	-139	log10 vapour pressure (mmHg): 2.24
CCCCCCCC/C=C\CCCCCCCC(=O)OC	–	-19.9	log10 vapour pressure (mmHg): -5.2; ready biodegradability: readily biodegradable
CCCCCCCCCCCCc1ccc(N)cc1	–	40.5	ready biodegradability: readily biodegradable
NCCCCCCNCCCCCCN	–	33	–
C=CC(C)CCC (stereo unspecified)	83.9	–	log10 vapour pressure (mmHg): 1.92
CCCN(C)C	66	–	–
C1CCC2C(C1)CCC1C3CCCCC3CCC21 (stereo unspecified)	353	115	–
CCC(C)(C)CC(C)C	131	-113	log10 vapour pressure (mmHg): 1.13

SMILES	boiling point [°C]	melting point [°C]	other results
Cc1cc(=O)n(-c2ccccc2)[nH]1	–	128	–
CC(=O)Cc1c[nH]c2ccccc12	–	116	–
CCOc1ccc(C(C)(C)COCc2cccc(Oc3ccccc3)c2)cc1	–	37	–
CN(C)c1ccc(Cc2ccc(N(C)C)cc2)cc1	390	91.5	log10 Koc (L/kg): 3.96; ready biodegradability: not readily biodegradable; log10 biotransformation half-life (days): -0.04
c1cc2ccc3ccc4ccc5cccc6c(c1)c2c3c4c56	–	278	log10 Henry constant (atm·m³/mol): -6.48; log10 Koc (L/kg): 4.61; log10 biodegradation half-life (days): 2.75; log10 vapour pressure (mmHg): -10
CCN(CC)c1ccc(Cl)cc1	252	45.5	–
O=C(NCC1CCCCN1)c1cc(OCC(F)(F)F)ccc1OCC(F)(F)F (stereo unspecified)	–	146	–
CCCCCCCCCCCCCCCC(N)=O	–	107	ready biodegradability: not readily biodegradable
O=C(CCl)C(Cl)(Cl)Cl	183	65	–
CCOC(=O)C(Br)CBr (stereo unspecified)	214	–	–
Clc1ccc(Oc2ccccc2)c(Cl)c1	–	–	log10 vapour pressure (mmHg): -3.04
Cc1ccccc1OC(=O)c1ccccc1	309	–	–
COS(=O)(=O)OC	–	-27	log10 vapour pressure (mmHg): -0.169
OCC1(CO)CC=CCC1	–	88.5	–
IC1CCCC1	166	–	–
O=CC1CCC=CO1 (stereo unspecified)	146	–	–
CCCCCCCCCCCCCCCC[n+]1ccccc1.[Br-]	–	63	–
C[Si](C)(C)O[Si](C)(C)C	99	-66	log10 vapour pressure (mmHg): 1.62
CCCCc1cc(C)ccc1O	228	19	–
C=CCNC(=O)NCC=C	–	91.5	–
CC=C(C)CCl	110	–	–
CC(C)C(C)CC(C)(C)C (stereo unspecified)	148	–	log10 vapour pressure (mmHg): 0.779
